Assay results as given in patent US7592345B2, “Piperazine and [1,4]diazepan derivatives as NK antagonists” (Hoffmann-La Roche Inc., priority 2007, dated 2009).
pKi: −log10 of the molar value.

Target: T1, recombinant human NK3 receptor (Homo sapiens, UniProt P29371)
T1 construct: expressed in transfected cells; host or cells: HEK293 cells (transient expression), membranes
T1 sequence (P29371 1-465): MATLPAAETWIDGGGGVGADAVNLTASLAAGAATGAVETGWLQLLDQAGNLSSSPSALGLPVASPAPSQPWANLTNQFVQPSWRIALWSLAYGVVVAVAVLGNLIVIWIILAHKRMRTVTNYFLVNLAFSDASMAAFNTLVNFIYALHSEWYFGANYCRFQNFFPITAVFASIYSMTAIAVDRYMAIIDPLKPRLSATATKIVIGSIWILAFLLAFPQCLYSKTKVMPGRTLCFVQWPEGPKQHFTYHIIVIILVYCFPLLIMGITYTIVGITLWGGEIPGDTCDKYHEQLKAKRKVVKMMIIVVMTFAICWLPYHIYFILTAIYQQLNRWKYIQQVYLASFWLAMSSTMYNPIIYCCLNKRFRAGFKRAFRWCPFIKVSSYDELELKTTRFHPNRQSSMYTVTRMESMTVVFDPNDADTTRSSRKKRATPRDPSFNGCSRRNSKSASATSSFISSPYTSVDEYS
Assay: [3H]SR142801 competition binding assay
Conditions: [3H]SR142801, membranes from HEK293 cells transiently expressing recombinant human NK3 receptor; read-out: hNK3 Ki
Procedure: [^3H]SR142801 Competition Binding Assay
hNK3 receptor binding experiment were performed using [^3H]SR142801 (Catalog No. TRK1035, specific activity: 74.0 Ci/mmol, Amersham, GE Healthcare UK limited, Buckinghamshire, UK) and membrane isolated from HEK293 cells transiently expressing recombinant human NK3 receptor. After thawing, the membrane homogenates were centrifuged at 48,000×g for 10 min at 4° C., the pellets were resuspended in the 50 mM Tris-HCl, 4 mM MnCl2, 1 μM phosphoramidon, 0.1% BSA binding buffer at pH 7.4 to a final assay concentration of 5 μg protein/well. For inhibition experiments, membranes were incubated with [^3H]SR142801 at a concentration equal to KD value of radioligand and 10 concentrations of the inhibitory compound (0.0003-10 μM) (in a total reaction volume of 500 μl) for 75 min at room temperature (RT). At the end of the incubation, membranes were filtered onto unitfilter (96-well white microplate with bonded GF/C filter preincubated 1 h in 0.3% PEI+0.3% BSA, Packard BioScience, Meriden, Conn.) with a Filtermate 196 harvester (Packard BioScience) and washed 4 times with ice-cold 50 mM Tris-HCl, pH 7.4 buffer. Nonspecific binding was measured in the presence of 10 μM SB222200 for both radioligands. The radioactivity on the filter was counted (5 min) on a Packard Top-count microplate scintillation counter with quenching correction after addition of 45 μl of microscint 40 (Canberra Packard S. A., Zürich, Switzerland) and shaking for 1 h. Inhibition curves were fitted according to the Hill equation: y=100/(1+(x/IC50)^nH), where nH=slope factor using Excel-fit 4 software (Microsoft). IC50 values were derived from the inhibition curve and the affinity constant (Ki) values were calculated using the Cheng-Prussoff equation Ki=IC50/(1+[L]/KD) where [L] is the concentration of radioligand and KD is its dissociation constant at the receptor, derived from the saturation isotherm. All experiments were performed in duplicate and the mean±standard error (SEM) of the individual Ki values was calculated.

pKi | Compound
7.48 | C[C@@H]1CN(CCC(C)(C(=O)NCc2ccc(C(F)(F)F)cc2)c2ccc(Cl)c(Cl)c2)CCN1S(C)(=O)=O (stereo partly drawn) [Example 45, 2-(3,4-Dichloro-phenyl)-4-((R)-4-methanesulfonyl-3-methyl-piperazin-1-yl)-2-methyl-N-(4-trifluoromethyl-benzyl)-butyramide]
7.00 | C[C@@H]1CN(CCC(C)(C(=O)NCc2cc(C(F)(F)F)ccc2F)c2ccc(Cl)c(Cl)c2)CCN1S(C)(=O)=O (stereo partly drawn) [Example 46, 2-(3,4-Dichloro-phenyl)-N-(2-fluoro-5-trifluoromethyl-benzyl)-4-((R)-4-methanesulfonyl-3-methyl-piperazin-1-yl)-2-methyl-butyramide]
7.80 | CC(NC(=O)C(C)(CCN1CCN(S(C)(=O)=O)[C@H](C)C1)c1ccc(Cl)c(Cl)c1)c1ccc(Cl)cc1 (stereo partly drawn) [Example 47, N-[1-(4-Chloro-phenyl)-ethyl]-2-(3,4-dichloro-phenyl)-4-((R)-4-methanesulfonyl-3-methyl-piperazin-1-yl)-2-methyl-butyramide]
6.58 | COc1cccc(CN(C)C(=O)C(C)(CCN2CCN(S(C)(=O)=O)[C@H](C)C2)c2ccc(Cl)c(Cl)c2)c1 (stereo partly drawn) [Example 48, 2-(3,4-Dichloro-phenyl)-4-((R)-4-methanesulfonyl-3-methyl-piperazin-1-yl)-N-(3-methoxy-benzyl)-2,N-dimethyl-butyramide]
7.06 | C[C@@H]1CN(CCC(C)(C(=O)N(C)Cc2ccccc2Cl)c2ccc(Cl)c(Cl)c2)CCN1S(C)(=O)=O (stereo partly drawn) [Example 49, N-(2-Chloro-benzyl)-2-(3,4-dichloro-phenyl)-4-((R)-4-methanesulfonyl-3-methyl-piperazin-1-yl)-2,N-dimethyl-butyramide]
7.59 | CC(NC(=O)C(C)(CCN1CCN(S(C)(=O)=O)[C@H](C)C1)c1ccc(Cl)c(Cl)c1)c1ccc(Cl)c(Cl)c1 (stereo partly drawn) [Example 50, 2-(3,4-Dichloro-phenyl)-N-[1-(3,4-dichloro-phenyl)-ethyl]-4-((R)-4-methanesulfonyl-3-methyl-piperazin-1-yl)-2-methyl-butyramide]
7.84 | C[C@@H]1CN(CCC(C)(C(=O)NCc2cccc(OC(F)(F)F)c2)c2ccc(Cl)c(Cl)c2)CCN1S(C)(=O)=O (stereo partly drawn) [Example 51, 2-(3,4-Dichloro-phenyl)-4-((R)-4-methanesulfonyl-3-methyl-piperazin-1-yl)-2-methyl-N-(3-trifluoromethoxy-benzyl)-butyramide]
7.33 | C[C@@H]1CN(CCC(C)(C(=O)NCc2ccc(Cl)c(F)c2)c2ccc(Cl)c(Cl)c2)CCN1S(C)(=O)=O (stereo partly drawn) [Example 52, N-(4-Chloro-3-fluoro-benzyl)-2-(3,4-dichloro-phenyl)-4-((R)-4-methanesulfonyl-3-methyl-piperazin-1-yl)-2-methyl-butyramide]
7.64 | C[C@@H]1CN(CCC(C)(C(=O)NCc2ccc(OC(F)(F)F)cc2)c2ccc(Cl)c(Cl)c2)CCN1S(C)(=O)=O (stereo partly drawn) [Example 53, 2-(3,4-Dichloro-phenyl)-4-((R)-4-methanesulfonyl-3-methyl-piperazin-1-yl)-2-methyl-N-(4-trifluoromethoxy-benzyl)-butyramide]
7.76 | C[C@@H]1CN(CCC(C)(C(=O)NCc2ccc(Cl)c(C(F)(F)F)c2)c2ccc(Cl)c(Cl)c2)CCN1S(C)(=O)=O (stereo partly drawn) [Example 54, N-(4-Chloro-3-trifluoromethyl-benzyl)-2-(3,4-dichloro-phenyl)-4-((R)-4-methanesulfonyl-3-methyl-piperazin-1-yl)-2-methyl-butyramide]
7.77 | C[C@@H]1CN(CCC(C)(C(=O)N(C)Cc2ccc(C(F)(F)F)cc2)c2ccc(Cl)c(Cl)c2)CCN1S(C)(=O)=O (stereo partly drawn) [Example 55, 2-(3,4-Dichloro-phenyl)-4-((R)-4-methanesulfonyl-3-methyl-piperazin-1-yl)-2,N-dimethyl-N-(4-trifluoromethyl-benzyl)-butyramide]
7.58 | C[C@@H]1CN(CCC(C)(C(=O)N(C)Cc2ccc(Cl)cc2)c2ccc(Cl)c(Cl)c2)CCN1S(C)(=O)=O (stereo partly drawn) [Example 56, N-(4-Chloro-benzyl)-2-(3,4-dichloro-phenyl)-4-((R)-4-methanesulfonyl-3-methyl-piperazin-1-yl)-2,N-dimethyl-butyramide]
6.79 | C[C@@H]1CN(CCC(C)(C(=O)NCc2ccc(C#N)cc2)c2ccc(Cl)c(Cl)c2)CCN1S(C)(=O)=O (stereo partly drawn) [Example 57, N-(4-Cyano-benzyl)-2-(3,4-dichloro-phenyl)-4-((R)-4-methanesulfonyl-3-methyl-piperazin-1-yl)-2-methyl-butyramide]
7.25 | C[C@@H]1CN(CCC(C)(C(=O)N(C)Cc2cccc(C(F)(F)F)c2)c2ccc(Cl)c(Cl)c2)CCN1S(C)(=O)=O (stereo partly drawn) [Example 58, 2-(3,4-Dichloro-phenyl)-4-((R)-4-methanesulfonyl-3-methyl-piperazin-1-yl)-2,N-dimethyl-N-(3-trifluoromethyl-benzyl)-butyramide]
6.99 | C[C@@H]1CN(CCC(C)(C(=O)N(C)Cc2cccc(Cl)c2)c2ccc(Cl)c(Cl)c2)CCN1S(C)(=O)=O (stereo partly drawn) [Example 59, N-(3-Chloro-benzyl)-2-(3,4-dichloro-phenyl)-4-((R)-4-methanesulfonyl-3-methyl-piperazin-1-yl)-2,N-dimethyl-butyramide]
6.88 | C[C@@H]1CN(CCC(C)(C(=O)N(C)Cc2cccc(F)c2)c2ccc(Cl)c(Cl)c2)CCN1S(C)(=O)=O (stereo partly drawn) [Example 60, 2-(3,4-Dichloro-phenyl)-N-(3-fluoro-benzyl)-4-((R)-4-methanesulfonyl-3-methyl-piperazin-1-yl)-2,N-dimethyl-butyramide]
6.61 | C[C@H]1CN(CCC(C)(C(=O)N(C)Cc2ccc(-c3ccncc3)cc2)c2ccc(Cl)c(Cl)c2)CCN1S(C)(=O)=O (stereo partly drawn) [Example 61, 2-(3,4-Dichloro-phenyl)-4-((S)-4-methanesulfonyl-3-methyl-piperazin-1-yl)-2,N-dimethyl-N-(4-pyridin-4-yl-benzyl)-butyramide]
6.67 | COc1ccc(CN(C)C(=O)C(C)(CCN2CCN(S(C)(=O)=O)[C@@H](C)C2)c2ccc(Cl)c(Cl)c2)cc1F (stereo partly drawn) [Example 62, 2-(3,4-Dichloro-phenyl)-N-(3-fluoro-4-methoxy-benzyl)-4-((S)-4-methanesulfonyl-3-methyl-piperazin-1-yl)-2,N-dimethyl-butyramide]
7.18 | COc1ccc(C(NC(=O)C(C)(CCN2CCN(S(C)(=O)=O)[C@@H](C)C2)c2ccc(Cl)c(Cl)c2)C2CC2)cc1 (stereo partly drawn) [Example 63, N-[Cyclopropyl-(4-methoxy-phenyl)-methyl]-2-(3,4-dichloro-phenyl)-4-((S)-4-methanesulfonyl-3-methyl-piperazin-1-yl)-2-methyl-butyramide]
7.77 | C[C@H]1CN(CCC(C)(C(=O)N(C)Cc2ccc(F)c(C(F)(F)F)c2)c2ccc(Cl)c(Cl)c2)CCN1S(C)(=O)=O (stereo partly drawn) [Example 64, 2-(3,4-Dichloro-phenyl)-N-(4-fluoro-3-trifluoromethyl-benzyl)-4-((S)-4-methanesulfonyl-3-methyl-piperazin-1-yl)-2,N-dimethyl-butyramide]
7.07 | C[C@H]1CN(CCC(C)(C(=O)NCc2cc(C(F)(F)F)cc(C(F)(F)F)c2)c2ccc(Cl)c(Cl)c2)CCN1S(C)(=O)=O (stereo partly drawn) [Example 65, N-(3,5-Bis-trifluoromethyl-benzyl)-2-(3,4-dichloro-phenyl)-4-((S)-4-methanesulfonyl-3-methyl-piperazin-1-yl)-2-methyl-butyramide]
